System: Xenopus melanophores
Assay: Melatonin-antagonist activity with respect to pigment aggregation
Assay type: cell-based, Xenopus laevis
Conditions: compound at 10^-7 M, melatonin 10^-8 M
Method: Melatonin is known to participate in regulation of the skin color of amphibians such as Xenopus (Xenopus laevis). It causes condensation of the […] granules in the melanophores of the dermis (Sugden D. European Journal of Pharmacology, vol. 213, pp: 405-408 (1992)).
The compounds of the invention were tested for their capacity to inhibit the effect of melatonin on Xenopus melanophores.
(According to the method described in Sugden D. Br. J. Pharmacol. vol. 104, pp 922-927, (1991)).
The neural crest of Xenopus embryos is dissected and the cells are isolated. The melanophores which appear after 2-3 days of culture are rapidly visible among the other cells emanating from the neural crest. The melanophores are cultured in Leibovitz L-15 medium (Gibco) and diluted (1/1) with deionized water containing 10% of fetal calf serum, 200 IU/cm^3 of penicillin, 200 μg/cm^3 of streptomycin and 2.5 μg/cm^3 of amphotericin B.
The experiments on the melanophores are carried out between days 7 and 12 of the culture.
The response of the isolated melanophores to melatonin is quantified by measuring the pigmented area using a computer-assisted image analyzer. The test compounds are added to the culture medium 10 to 15 min before the measurement.

`O=C(NCCc1cccc2ccccc12)C1CCC1` [Example 1, N-[2-(1-naphthyl)ethyl]cyclobutanecarboxamide] was tested, and the “antagonism of the action of melatonin on pigment aggregation” value was “significantly antagonizes the action of melatonin”.
